Reference: US20140249191A1, “Compositions for Controlling Vascularization in Ophthalmological and Dermatological Diseases” (AVIENNE PHARMACEUTICALS GMBH, priority 2011, published 2014)
“Also recorded” adds a separate entry of the source.

Experiments:
αvβ3-receptor = αvβ3-receptor (Homo sapiens, UniProt P05106+P06756); settings: Dayam et al, 2006; cited from earlier work
[1] = system: SAOS-2, Hela, HT29, U87MG and SK-N-DZ cells; assay: Cytotoxic activity in cancer cell lines (cell numbers); format: cell-based; settings: up to 20 μM; uncoated dishes or coated with vitronectin or fibrinogen
Description: For example, cytotoxic activity of AV-398 was determined in several cancer cell lines (SAOS-2, Hela, HT29, U87MG and SK-N-DZ cells) by assessing cell numbers after treating cell lines with varying concentration of up to 20 μM. Experiments were performed either on uncoated dishes, or on dishes coated with vitronectin or fibrinogen. In addition, tumor cell lines were treated in parallel with echistatin (Gan Z R et al (1998)). […] Similar data were recently published showing cytotoxic activity also only against MDA-MB-435 breast cancer cells (Dayam R et al, 2006).

ocular angiogenesis = assay: Conjunctival incision ocular angiogenesis model; format: in vivo, white pigs; settings: pigs, eye drops 100 μg/ml
Text: AV-398 inhibits ocular angiogenesis in vivo in a widely accepted large animal model. The cornea is an ideal model system for angiogenesis in general, and more specifically for angiogenesis of the eye. The corneal angiogenesis assay is one of the most widely used in vivo assay for the evaluation of factors influencing angiogenesis (Auerbach R, 2003, Thiele W, 2006). One reason that makes the cornea an ideal object for observing neovascularisation is its normal lack of vascularity, maintained by different molecular mechanisms. New vessels can easily be identified by visual inspection alone and quantified with the help of computerized image analysis programs. The effect of an ophthalmological formulation of AV-398 after a conjunctival insult with subsequent angiogenesis in a large animal model was investigated in order to test whether the in vitro data, such as anti-proliferative effects on human endothelial cells, could be reproduced in vivo. Six white pigs weighing 10 to 15 kg were included. First, corneae and conjunctivae were anaesthesized by local application of lidocaine 4%. Then, an incision of 0.5 cm length through the conjunctival tunica sclerae to the substantia propria was placed in parallel to the dorsal corneal limbus at a distance of approximately 2 mm. The animals were treated as follows. […]

[2] = system: endothelial cells of different origin (lung, lymphatics and umbilical); assay: Endothelial cell proliferation assay (direct cell counting); format: cell-based, human
Description: Primary endothelial cell lines (HMVEC-dLyAd—human dermal lymphatic microvascular endothelial cells (EC), dermal blood microvascular EC, HMVEC-LB lung blood microvascular EC, HMVEC-C cardiac human microvascular endothelial cells and MVEC-d—dermal microvascular EC) are from Cambrex Bio Science (Cambrex Bio Science Walkersville Inc., Walkersville, Md., USA). Cell lines are cultured according to the manufacturer's recommendations.
For proliferation assays, cells are seeded in 24- to 96-well plates in medium at different concentrations according to the cell type. After 24 hours, the medium is removed and replaced with fresh medium containing increasing concentrations of the compounds. The plates are then incubated for additional 24 to 72 hours, depending on the type of the experiment. Cells are then trypsinized and collected for direct counting. Results are plotted and expressed as means (±SE) for each compound and for a given concentration.

[3] = system: chorioallantoic membrane vascularisation; assay: Chorioallantoic membrane (CAM) assay; format: in vivo, chicken embryo; settings: applied on CAM day 6 p.f., incubated until day 11 p.f.
Text: Local Application of AV-398 inhibits in vivo angiogenesis as evidenced by the chicken egg chorioallantoic membrane model. The chorioallantoic membrane (CAM) of the developing chicken embryo serves as an alternative to the traditional mammalian in vivo models, and further corroborates the findings in pigs described above and has clear relevance for the treatment e.g. dermatological indications linked to neoangiogenesis. AV-398 was applied over 5 days.
Eggs were opened on day 6 post fertilization (p.f.). Substances (200 μl respectively) were applied on the CAM on day 6 p.f. and incubated until day 11 p.f. As a vehicle control, 1% DMSO in PBS (phosphate-buffered saline solution pH 7.4) without AV-398 was used. Eggs were inspected daily by stereo-microscopy and pictures were taken (6× magnification).

Chain of αvβ3-receptor (P06756 31-889 limits assumed): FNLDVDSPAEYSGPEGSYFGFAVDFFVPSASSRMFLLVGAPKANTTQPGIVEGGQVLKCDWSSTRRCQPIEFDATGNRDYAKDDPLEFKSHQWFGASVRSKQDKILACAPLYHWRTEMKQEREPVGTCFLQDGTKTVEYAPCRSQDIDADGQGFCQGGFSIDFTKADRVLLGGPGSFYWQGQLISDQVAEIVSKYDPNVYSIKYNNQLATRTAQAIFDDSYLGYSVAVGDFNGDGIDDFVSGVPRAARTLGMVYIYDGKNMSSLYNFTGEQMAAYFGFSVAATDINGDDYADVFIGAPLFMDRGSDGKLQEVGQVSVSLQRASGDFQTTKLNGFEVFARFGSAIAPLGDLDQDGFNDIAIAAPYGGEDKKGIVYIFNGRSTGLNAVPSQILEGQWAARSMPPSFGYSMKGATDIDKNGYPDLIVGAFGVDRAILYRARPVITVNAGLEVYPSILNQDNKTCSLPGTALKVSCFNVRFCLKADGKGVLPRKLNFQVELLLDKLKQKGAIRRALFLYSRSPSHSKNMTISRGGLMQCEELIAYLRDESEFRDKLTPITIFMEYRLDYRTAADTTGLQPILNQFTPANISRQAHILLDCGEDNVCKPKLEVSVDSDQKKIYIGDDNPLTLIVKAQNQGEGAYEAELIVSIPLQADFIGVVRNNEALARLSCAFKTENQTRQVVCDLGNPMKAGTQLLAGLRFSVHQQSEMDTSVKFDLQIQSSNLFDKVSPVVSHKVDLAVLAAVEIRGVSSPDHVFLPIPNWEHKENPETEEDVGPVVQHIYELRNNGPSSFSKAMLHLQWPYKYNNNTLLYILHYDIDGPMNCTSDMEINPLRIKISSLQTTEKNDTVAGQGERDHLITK
Chain of αvβ3-receptor (P06756 891-1048 partner limits assumed): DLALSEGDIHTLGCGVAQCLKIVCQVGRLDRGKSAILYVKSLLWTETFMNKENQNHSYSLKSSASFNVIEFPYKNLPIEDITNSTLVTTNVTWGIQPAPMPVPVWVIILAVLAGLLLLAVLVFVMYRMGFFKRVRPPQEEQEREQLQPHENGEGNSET
Chain of αvβ3-receptor (P05106 27-788): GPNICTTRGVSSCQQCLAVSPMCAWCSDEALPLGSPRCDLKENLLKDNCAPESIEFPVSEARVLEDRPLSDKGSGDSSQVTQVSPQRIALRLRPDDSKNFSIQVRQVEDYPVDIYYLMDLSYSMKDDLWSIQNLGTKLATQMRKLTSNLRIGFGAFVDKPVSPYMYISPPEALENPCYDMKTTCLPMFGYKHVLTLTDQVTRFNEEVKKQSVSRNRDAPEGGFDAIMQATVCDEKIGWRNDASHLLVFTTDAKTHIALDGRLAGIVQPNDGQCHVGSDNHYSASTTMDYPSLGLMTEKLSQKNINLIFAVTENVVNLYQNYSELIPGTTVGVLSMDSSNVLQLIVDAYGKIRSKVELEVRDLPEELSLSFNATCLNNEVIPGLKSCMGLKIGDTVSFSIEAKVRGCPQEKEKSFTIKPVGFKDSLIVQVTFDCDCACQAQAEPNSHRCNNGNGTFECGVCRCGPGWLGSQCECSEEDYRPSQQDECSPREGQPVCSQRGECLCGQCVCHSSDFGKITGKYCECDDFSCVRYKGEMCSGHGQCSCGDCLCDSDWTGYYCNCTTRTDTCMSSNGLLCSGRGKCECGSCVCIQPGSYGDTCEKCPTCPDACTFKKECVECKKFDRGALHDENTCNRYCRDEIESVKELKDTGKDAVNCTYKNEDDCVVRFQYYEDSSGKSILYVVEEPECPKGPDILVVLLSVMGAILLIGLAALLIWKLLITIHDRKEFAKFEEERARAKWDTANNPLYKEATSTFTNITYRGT

In the case of `CCOc1cc(C=C2S/C(=N/c3ccc(C(=O)O)cc3)N(C)C2=O)ccc1O` (stereo in doubt) [AV-398, 4-({5-[(E)-1-(3-ethoxy-4-hydroxyphenyl)methylidene]-3-methyl-4-oxo-1,3-thiazolan-2-yliden}amino)benzoic acid], the avβ3 binding affinity (αvβ3-receptor) is listed as 240 nM, the “effects on cancer cell lines (cytotoxic activity)” value [1] is listed as “no meanigful effects” and the “bleeding surrounding the incision immediately after treatment” value (ocular angiogenesis) is listed as “marked diffuse bleeding”. For the same compound, the “neoangiogenesis on treated conjunctivae versus control-treated eyes” value (ocular angiogenesis; topical after incision) was “diminished neoangiogenesis”, the “antiproliferative effect against endothelial cells” value [2] was “strong antiproliferative effect” and the “vascularisation of chicken embryo CAM versus vehicle control” value [3] was “markedly decreased vascularisation; also recorded: significant reduction of vascularisation”.
